From PubChem BioAssay (NCI)
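Cells were grown in 96-well plates and exposed to each compound for 48 hours at five concentrations; endpoints were interpolated linearly between bracketing concentrations, or set to the highest concentration if not reached. GI50: concentration for 50% inhibition of growth. TGI: total growth inhibition.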

Experiments:
Assay in all cases: growth of human tumour cells (NCI), 48 h
IGROV1 ovarian = tested on: IGROV1 ovarian
SNB-75 CNS = tested on: SNB-75 CNS
SK-MEL-2 melanoma = tested on: SK-MEL-2 melanoma
MDA-MB-435 = tested on: MDA-MB-435
RXF 393 renal = tested on: RXF 393 renal
TK-10 renal = tested on: TK-10 renal
DU-145 prostate = tested on: DU-145 prostate
EKVX NSCLC = tested on: EKVX NSCLC
OVCAR-5 ovarian = tested on: OVCAR-5 ovarian
RPMI-8226 leukemia = tested on: RPMI-8226 leukemia

| SMILES | GI50 (IGROV1 ovarian) | TGI (IGROV1 ovarian) | GI50 (SNB-75 CNS) | TGI (SNB-75 CNS) | GI50 (SK-MEL-2 melanoma) | TGI (SK-MEL-2 melanoma) | GI50 (MDA-MB-435) | TGI (MDA-MB-435) | GI50 (RXF 393 renal) | TGI (RXF 393 renal) | GI50 (TK-10 renal) | TGI (TK-10 renal) | GI50 (DU-145 prostate) | TGI (DU-145 prostate) | GI50 (EKVX NSCLC) | TGI (EKVX NSCLC) | GI50 (OVCAR-5 ovarian) | TGI (OVCAR-5 ovarian) | GI50 (RPMI-8226 leukemia) | TGI (RPMI-8226 leukemia) |
| --- | --- | --- | --- | --- | --- | --- | --- | --- | --- | --- | --- | --- | --- | --- | --- | --- | --- | --- | --- | --- |
| COc1cc2c(cc1OC)-c1ncc3cc4c(cc3c1C2)OCO4 | 25 µM | 59.6 µM | 64.1 µM | > 100 µM | 32.2 µM | 75.8 µM | 63.4 µM | > 100 µM | 50.2 µM | > 100 µM | 43.2 µM | > 100 µM | 25.3 µM | 53.6 µM | 22 µM | 72.3 µM | 39.6 µM | 97 µM | 5.57 µM | > 100 µM |
| COC(=O)[C@]12CC[C@@H](C)[C@H](C)[C@@H]1C1=CC[C@@H]3[C@@]4(C)CC(=O)[C@H](OC(=O)c5ccco5)[C@@]5(C)COC(=C45)C[C@@]3(C)[C@]1(C)CC2 | 3.71 µM | > 100 µM | 6.3 µM | > 100 µM | 5.63 µM | > 100 µM | 0.763 µM | > 100 µM | 67.9 µM | > 100 µM | 30.8 µM | > 100 µM | 9.04 µM | > 100 µM | 2.09 µM | > 100 µM | > 100 µM | > 100 µM | 0.584 µM | > 100 µM |
| O=C(CCl)Nc1cc(O)c2c(c1)C(=O)c1cccc(O)c1C2=O | 0.942 µM | 3.13 µM | 1.21 µM | 3.2 µM | 1.49 µM | 3.93 µM | 1.95 µM | 4.72 µM | 1.72 µM | 3.5 µM | 1.97 µM | 3.39 µM | 1.56 µM | 2.94 µM | 1.77 µM | 4.52 µM | 2.32 µM | 5.19 µM | 2.17 µM | 6.39 µM |
| O=C(Nc1ccc(I)cc1F)c1cc(I)ccc1O | 0.611 µM | > 100 µM | 0.752 µM | 6.75 µM | 0.319 µM | 1.59 µM | 0.723 µM | 7.9 µM | 0.779 µM | 3.24 µM | 1.49 µM | > 64.5 µM | 0.873 µM | > 100 µM | 0.737 µM | 7.17 µM | 3.05 µM | > 100 µM | 0.375 µM | 1.64 µM |
| CN1CCN(CCOc2ccc(-c3cnc4c(-c5ccc(F)cc5)cnn4c3)cc2)CC1 | 1.63 µM | 3.3 µM | 1.34 µM | 3.32 µM | 2.09 µM | 4.31 µM | 1.73 µM | 3.18 µM | 1.65 µM | 3.27 µM | 1.82 µM | 3.5 µM | 1.64 µM | 3.16 µM | 1.79 µM | 3.55 µM | 1.6 µM | 3.03 µM | 1.67 µM | 4.67 µM |
| COc1cc([C@@H]2c3cc4c(cc3C(OC3O[C@@H]5COC(C)O[C@H]5[C@H](O)[C@H]3O)C3COC(=O)[C@@H]32)OCO4)cc(OC)c1O (stereo not given in full) | 2.95 µM | > 50 µM | 1.18 µM | > 18.9 µM | 7.37 µM | 31.9 µM | 3.89 µM | > 50 µM | 0.982 µM | 8.31 µM | 3.56 µM | 15.4 µM | 1.2 µM | 5.78 µM | 11.4 µM | > 50 µM | 11 µM | > 50 µM | 0.666 µM | 7.83 µM |
| O=S(=O)(O)ONC1=NCCN1 | > 100 µM | > 100 µM | > 100 µM | > 100 µM | > 100 µM | > 100 µM | > 100 µM | > 100 µM | 66.7 µM | > 100 µM | > 100 µM | > 100 µM | > 100 µM | > 100 µM | > 100 µM | > 100 µM | > 100 µM | > 100 µM | 46.1 µM | > 100 µM |
| CCOC(=S)SCN1C(=O)c2ccccc2S1(=O)=O | 18.5 µM | 52.4 µM | 4.68 µM | 29.6 µM | 44.5 µM | > 100 µM | 6.5 µM | 24.4 µM | 6.97 µM | 21.6 µM | 29.4 µM | > 100 µM | 16.5 µM | 34.2 µM | 19.7 µM | 36.6 µM | 14.5 µM | 29.9 µM | 12.8 µM | 38.2 µM |
| CCCCCCNC(=O)Oc1ccc(/C(=C(\C)c2ccccc2)c2ccc(OCCN(CC)CC)cc2)cc1 | 3.11 µM | 9.82 µM | 3.54 µM | 10.5 µM | 7.5 µM | 14.8 µM | 3.57 µM | 10.1 µM | 2.35 µM | 8.16 µM | 6.74 µM | 13.5 µM | 7.45 µM | 14.6 µM | 6.02 µM | 12.5 µM | 6.71 µM | 13.2 µM | 2.32 µM | 9.71 µM |
| O=C(NCCCCOCC#Cc1ccccc1C#CCS(=O)(=O)c1ccccc1)c1cc2ccccc2[nH]1 | 2.68 µM | 7.03 µM | 12.5 µM | 27.3 µM | 20.9 µM | > 50 µM | 10.6 µM | 30.3 µM | 12.2 µM | 38.5 µM | 23.5 µM | > 50 µM | 18.1 µM | > 50 µM | 22.5 µM | > 50 µM | 26.8 µM | > 50 µM | 2.78 µM | 13.2 µM |
| COc1cc(/C=N\O)nc(-c2ccccn2)c1 |  | 13.2 µM |  | > 51.6 µM |  | > 100 µM |  | > 100 µM |  | > 100 µM |  | > 100 µM |  | > 100 µM |  | 23.5 µM |  | > 100 µM |  | > 76.8 µM |
| Oc1c(CN2CCOCC2)cc(COCc2ccccc2)c2cccnc12 | 3.85 µM | > 100 µM | 10.4 µM | > 100 µM | 3.22 µM | 59.1 µM | 6.5 µM | > 100 µM | 3.25 µM | 72.7 µM | 3.75 µM | > 100 µM | 4.73 µM | > 100 µM | 2.88 µM | > 100 µM | 5.08 µM | > 100 µM | 4.06 µM | > 100 µM |
